From patent US7569596B2, “Imidazolamino compounds” (National Health Research Institutes, priority 2002, dated 2009)

Tested on: Murine leukemic P388 cells
Assay: In vivo anticancer activity, murine leukemic P388 model
Parameters: species or system DBA/2J mice
Details: mice intravenously inoculated with P388 cells; given P.O. or I.V. at different doses
Method: Evaluation of in vivo Anticancer Activity
The in vivo anticancer activities of the compounds were evaluated by the following murine leukemic P388 model. Inbred female DBA/2J mice of 4-5 week-old were purchased from the National Laboratory Animals Breeding and Research Center, Taipei, Taiwan, ROC. Murine leukemic P388 cells were purchased from the Japanese Collection of Research Bioresources, Japan. P388 cells were cultured and propagated in RPM11640 medium supplemented with 50 μM 2-mercaptoethanol and 10% fetal bovine serum. Mice at the age of 6 weeks were grouped as the treatment, negative control and positive control groups at 7 to 8 mice per group. All mice were intravenously inoculated with the P388 cells at one million per mouse one day before the treatments initiated. Compound 6 was dissolved in dimethyl sulfoxide (DMSO) and then diluted in 0.5% carboxymethyl cellulose or a Cremophor-based vehicle with the final concentration of DMSO less than 0.5%. Different treatment groups were orally (P.O.) or intravenously (I.V.) given, respectively, with Compound 6 of different doses for a pharmacological dose-response relationship. The mice of the negative control group were treated with the dosing vehicle only. […] The cancer cell-inoculated animals were monitored twice daily. Survival fractions of the mice were recorded. […]

In the case of `Nc1nc(-c2cccs2)cn1-c1nc(-c2ccccc2)cs1` [Compound 6, 1-(4-phenyl-1,3-thiazol-2-yl)-4-(2-thienyl)-1H-2-imidazolamine], the “survival rate of the inoculated mice” value is reported as “increased the survival rate”.
